Legend:
MEC monolayers = experiment: FITC Transwell permeability assay; assay type: cell-based, human
Method: The integrity of these junctions is also important for the regulation of monolayer permeability by controlling the size of intercellular openings. The effect of the AXT107 on EC permeability was further investigated by the transendothelial diffusion of FITC-labeled dextran across MEC monolayers seeded onto permeable Transwell® substrates.
Transwell, twenty-four-well inserts (Corning) were coated with 7.5 μg/cm^2 FN1 for two hours at 37° C., aspirated, and then dried for thirty minutes at room temperature. Wells were then seeded with 7.5×10^4 MECs in 100 μl of EBM-2 media (without phenol red) and allowed to settle for thirty minutes at room temperature. 1 ml of EGM-2 media was then added to the bottom chamber and an additional 200 μl to the top chamber. The plate was incubated for twenty-four hours at 37° C. after which the media was aspirated and an additional 7.5×10^4 MECs were plated in each well as described above. After forty-eight hours at 37° C., the media was aspirated from both chambers and the cells were washed twice in dPBS containing Ca^2+ and Mg^2+, once with EBM-2 media (without phenol red) and serum starved in EBM-2 media applied to both chambers for two hours at 37° C. After this incubation, 100 μM AXT107 or an equivalent amount of DMSO vehicle was added and incubated for an additional ninety minutes. In the top chamber, the cells were then treated with 200 ng/ml Ang2, 100 ng/ml VEGFA, both, or PBS control and in the bottom chamber, the cells were then treated with 25 μg/ml FITC-Dextran (40 kDa MW). AXT107 was also added in both chambers to maintain a concentration of 100 μM. After three hours, 10 μl was removed from the top chamber of each well and mixed with 90 μl of water in a clear bottom, 96-well plate. Fluorescence values for each sample were calculated using a Perkin Elmer plate reader.

Tie2 = experiment: Triton X-100 fractionation of MEC lysates, Tie2; assay type: cell-based, human
Method: Tie2 at EC-EC junctions form actin-rich complexes that are insoluble in Triton X-100-based lysis buffers but are soluble when distributed over the surface of the cell. Therefore, MEC monolayers were treated with various combinations of AXT107, Ang1, and Ang2 and cell lysates were fractionated by their solubility in Triton X-100-based lysis buffers. Experiments including VEGF 165 were also performed since VEGFR2 signaling often opposes the activities of Tie2. In each experiment, 100 μM AXT107 was used since it provided clear results relative to lower concentrations of AXT107.
Next, experiments were performed to determine whether or not relocation of Tie2 to the insoluble fraction was important for Tie2's activation by Ang2. Tie2 was immunoprecipitated from fractionated MEC lysates exposed to Ang2 with or without AXT107 and then immunoblotted for phospho-Tie2.
(§1) The isolation of Triton X-100 soluble and insoluble fractions was performed using modifications to previously-described procedures (see, e.g., Lampugnani et al., J Cell Biol. 1995; 129(1):203-217). FN1-coated six-well plates were seeded with 2.5×10^6 cells and cultured for forty-eight hours, as described above. The cultures were then serum starved for ninety minutes in EBM-2 media, treated with 100 μM AXT107 or DMSO vehicle, and fifteen minutes with 1 mM sodium vanadate. […] Samples were analyzed by western blot as described above. […]

β1 integrin subunit = molecular target: T1, β1 integrin subunit (Homo sapiens, UniProt P05556); experiment: Triton X-100 fractionation of MEC lysates, β1 integrin; assay type: cell-based
T1 construct: host or cells: human dermal microvascular endothelial cells (MEC)
T1 sequence (P05556 21-798): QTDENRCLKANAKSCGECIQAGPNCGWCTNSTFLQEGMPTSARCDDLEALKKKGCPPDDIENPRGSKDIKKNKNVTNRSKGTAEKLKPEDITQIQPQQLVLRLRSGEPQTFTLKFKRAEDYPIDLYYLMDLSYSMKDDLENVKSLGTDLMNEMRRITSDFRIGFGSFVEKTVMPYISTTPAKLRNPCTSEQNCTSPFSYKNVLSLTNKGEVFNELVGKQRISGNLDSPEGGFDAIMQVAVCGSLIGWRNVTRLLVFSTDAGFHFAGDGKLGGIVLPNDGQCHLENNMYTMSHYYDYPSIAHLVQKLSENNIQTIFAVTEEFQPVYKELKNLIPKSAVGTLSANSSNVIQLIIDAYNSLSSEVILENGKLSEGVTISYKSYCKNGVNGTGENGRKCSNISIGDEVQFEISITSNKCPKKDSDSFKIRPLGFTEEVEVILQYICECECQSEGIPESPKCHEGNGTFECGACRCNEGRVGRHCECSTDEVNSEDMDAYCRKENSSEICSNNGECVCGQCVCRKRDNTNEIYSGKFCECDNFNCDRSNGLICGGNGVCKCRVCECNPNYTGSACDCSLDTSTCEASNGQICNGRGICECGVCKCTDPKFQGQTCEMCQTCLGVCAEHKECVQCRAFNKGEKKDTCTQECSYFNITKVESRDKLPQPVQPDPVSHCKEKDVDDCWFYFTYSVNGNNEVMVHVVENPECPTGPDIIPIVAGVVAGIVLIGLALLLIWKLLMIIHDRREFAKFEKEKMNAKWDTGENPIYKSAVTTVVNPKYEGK
Text: Since β1 integrin is the only known β subunit to heterodimerize with the α5 integrin subunit, it unlikely that the as subunit, that was observed here in the insoluble fractions, originated from a heterodimeric integrin pair other than α5β1. Unfortunately, high background impaired the visualization of α5 integrin alone by immunofluorescence. Given the unexpected discovery that AXT107 dissociates the integrin heterodimer, this discovery was confirmed in several independent assays. […] Thus, interactions between Tie2 and heterodimerized α5β1 integrin appear to retain Tie2 at the EC-ECM interface.
as §1, with “vanadate. The cells were then stimulated with either 100 ng/ml VEGFA, 400 ng/ml Ang2, or PBS for fifteen minutes. The plates were then transferred to ice and washed twice with cold dPBS containing Ca^2+ and Mg^2+ and twice with EBM-2 media.” for “vanadate.”

integrin αvβ3 = integrin αvβ3 (Homo sapiens, UniProt P05106+P06756); details: Lee et al., Sci Rep. 2014; cited from earlier work
Sequence of integrin αvβ3 (P06756 31-1048): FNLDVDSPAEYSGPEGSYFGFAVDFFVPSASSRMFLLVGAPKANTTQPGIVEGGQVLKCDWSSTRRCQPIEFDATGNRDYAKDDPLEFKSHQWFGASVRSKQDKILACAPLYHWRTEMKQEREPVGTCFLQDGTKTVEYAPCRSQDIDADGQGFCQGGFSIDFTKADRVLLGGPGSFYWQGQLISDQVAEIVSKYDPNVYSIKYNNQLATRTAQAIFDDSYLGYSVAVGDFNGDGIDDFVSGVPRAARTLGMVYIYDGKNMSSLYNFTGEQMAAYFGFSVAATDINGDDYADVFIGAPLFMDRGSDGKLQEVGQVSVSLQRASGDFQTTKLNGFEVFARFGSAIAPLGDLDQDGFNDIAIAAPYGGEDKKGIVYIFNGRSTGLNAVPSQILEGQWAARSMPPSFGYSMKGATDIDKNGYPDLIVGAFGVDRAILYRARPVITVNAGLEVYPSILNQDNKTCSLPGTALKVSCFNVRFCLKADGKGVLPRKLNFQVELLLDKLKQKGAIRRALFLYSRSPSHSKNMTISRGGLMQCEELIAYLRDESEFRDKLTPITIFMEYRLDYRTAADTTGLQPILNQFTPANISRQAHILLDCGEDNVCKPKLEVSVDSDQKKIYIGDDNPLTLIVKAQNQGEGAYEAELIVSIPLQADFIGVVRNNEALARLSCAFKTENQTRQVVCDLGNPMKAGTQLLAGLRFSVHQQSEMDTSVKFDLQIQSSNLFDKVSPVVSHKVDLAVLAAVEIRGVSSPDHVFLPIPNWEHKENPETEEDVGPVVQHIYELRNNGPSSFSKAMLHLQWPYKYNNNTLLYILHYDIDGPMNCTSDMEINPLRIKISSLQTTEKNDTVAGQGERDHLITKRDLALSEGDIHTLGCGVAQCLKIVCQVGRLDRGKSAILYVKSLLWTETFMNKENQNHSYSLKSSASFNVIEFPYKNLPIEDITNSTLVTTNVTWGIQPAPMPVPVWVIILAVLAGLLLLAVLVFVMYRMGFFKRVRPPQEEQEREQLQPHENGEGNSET
Sequence of integrin αvβ3 (P05106 27-788): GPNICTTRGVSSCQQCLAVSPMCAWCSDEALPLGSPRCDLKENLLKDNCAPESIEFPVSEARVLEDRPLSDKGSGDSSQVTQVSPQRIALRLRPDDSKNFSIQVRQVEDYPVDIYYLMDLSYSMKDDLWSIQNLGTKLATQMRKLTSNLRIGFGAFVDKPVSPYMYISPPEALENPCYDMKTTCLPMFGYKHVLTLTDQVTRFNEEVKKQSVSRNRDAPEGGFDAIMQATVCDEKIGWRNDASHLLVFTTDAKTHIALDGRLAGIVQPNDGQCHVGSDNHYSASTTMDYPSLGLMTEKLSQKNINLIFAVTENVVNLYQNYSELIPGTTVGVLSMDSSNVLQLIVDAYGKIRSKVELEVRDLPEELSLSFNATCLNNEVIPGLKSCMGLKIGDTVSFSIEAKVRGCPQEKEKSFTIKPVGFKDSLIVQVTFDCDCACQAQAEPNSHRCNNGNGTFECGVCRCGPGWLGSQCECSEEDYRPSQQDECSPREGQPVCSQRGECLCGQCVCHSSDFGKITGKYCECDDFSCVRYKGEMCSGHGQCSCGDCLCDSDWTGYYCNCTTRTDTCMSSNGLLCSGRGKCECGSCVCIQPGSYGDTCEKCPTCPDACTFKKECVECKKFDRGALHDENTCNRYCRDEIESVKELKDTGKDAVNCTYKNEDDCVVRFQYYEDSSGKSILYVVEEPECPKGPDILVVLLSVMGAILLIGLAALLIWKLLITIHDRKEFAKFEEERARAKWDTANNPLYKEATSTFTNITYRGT

Sequence: LRRFSTAPFAFIDINDVINF [AXT107]
- FITC-dextran diffusion into the top chamber (MEC monolayers; Ang2 alone added to monolayers pre-incubated with 100 μM AXT107, vs growth factor alone): significant decrease
- FITC-dextran diffusion into the top chamber (MEC monolayers; Ang2 in combination with VEGF, monolayers pre-incubated with 100 μM AXT107, vs growth factors alone): significant decrease
- FITC-dextran diffusion (MEC monolayers; VEGF in presence vs absence of peptide): similar, but non-significant trend
- FITC-dextran diffusion across the monolayer, single treatment (MEC monolayers; each agent alone): influenced FITC-dextran diffusion across the monolayer
- amount of Tie2 in Triton X-100 insoluble fraction (Tie2; 100 μM AXT107, independent of growth factor treatment): increased amounts
- phospho-Tie2 in fractionated lysates immunoprecipitated for Tie2 (Tie2; MEC exposed to Ang2 with or without AXT107): observed only in the insoluble fractions of peptide-treated samples
- β1 integrin subunit in insoluble fraction (β1 integrin subunit; 100 μM AXT107, long exposure times, high antibody concentrations): never observed in the insoluble fraction
- interactions of immunoprecipitated α5 integrin with β1 (β1 integrin subunit; Triton X-100 fractionated lysates after AXT107 treatment, data not shown): only found in the soluble fractions
- binding to integrin αvβ3 (integrin αvβ3): binds tightly

— US20190225670A1, “COMPOUNDS AND METHODS FOR ACTIVATING TIE2 SIGNALING” (ASCLEPIX THERAPEUTICS, LLC, priority 2016, published 2019)
